Test results as given in patent publication US20240293405A1, “(1H-PYRROLO[2,3-B]PYRIDIN-1-YL)PYRIMIDIN-2-YL-AMINO-PHENYL-ACRYLAMIDE INHIBITORS OF EGFR FOR USE IN THE TREATMENT OF BRAIN TUMORS” (Dana-Farber Cancer Institute, Inc., priority 2021, published 2024).
Like-named read-outs stand apart in the source and are kept apart here.

Test: Oral dog 4-week toxicity study with toxicokinetics
Type: in vivo, beagle dogs
Conditions: for HNSTD: 4-week oral
Procedure: Compound 1 (0, 10, 30, and 100 mg/kg/day) was given orally, once daily by gavage, to male and female beagle dogs (4/sex) for up to 28 days. […] The cause of death in this high-dose male was attributed to myocardial degeneration. This lesion was not observed in any other dog on study. Increases in alkaline phosphatase, globulin, cholesterol, triglycerides and fibrinogen and decreased reticulocyte counts noted in the high-dose group at mid-study returned towards baseline by the end of the study following 11/12 days of recovery. Testicular changes at all doses (seminiferous epithelial vacuolation at 10 and 30 mg/kg and degeneration/atrophy at 100 mg/kg) were not reversible in this short-term study; the reversibility period was not long enough to assess reversibility of testicular changes.
The increases were generally dose-proportional or greater-than dose-proportional on Day 1 and Day 28. Gender difference was not observed. No significant accumulation of Compound 1 or Compound 2 was observed.
Thirty-two beagle dogs (conventional, naive) were divided into four groups. Each group consists of four male and four female. Group 1 beagle dogs were administered vehicle and groups 2-4 beagle dogs were administered Compound 1 at 10 mg/kg, 30 mg/kg, and 100 mg/kg, respectively, by oral gavage once daily for 28 consecutive days (Table 15). […] Cmax (ng/mL) and AUClast (hr*ng/mL) of Compound 1 on day 1 were obtained for groups 2-4 (Table 15).

[1] = both sexes, beagle, in vivo, dog, day 1, oral gavage

With C=CC(=O)Nc1cc(Nc2nccc(-n3ccc4cccnc43)n2)c(OC)cc1N(C)CCN(C)C [Compound 1, N-(5-((4-(1H-pyrrolo[2,3-b]pyridin-1-yl)pyrimidin-2-yl)amino)-2-((2-(dimethylamino)ethyl)(methyl)amino)-4-methoxyphenyl)acrylamide] the mortality (100 mg/kg/day, attributed to myocardial degeneration) was “one male was found dead on Day 13”, the Cmax (beagle, in vivo, po, dog Day 1, 10 mg/kg/day, Female) was 142 ng/mL and the AUC(0-t) (beagle, in vivo, po, dog Day 1, 10 mg/kg/day, Female, read-out: AUClast) was 2060 ng·h/mL. The Cmax (beagle, in vivo, po, dog Day 1, 10 mg/kg/day, Male) was 166 ng/mL, the AUC(0-t) (beagle, in vivo, po, dog Day 1, 10 mg/kg/day, Male, read-out: AUClast) was 1650 ng·h/mL and the Cmax (beagle, in vivo, po, dog Day 1, 30 mg/kg/day, Female) was 170 ng/mL. The AUC(0-t) (beagle, in vivo, po, dog Day 1, 30 mg/kg/day, Female, read-out: AUClast) was 1960 ng·h/mL, the Cmax (beagle, in vivo, po, dog Day 1, 30 mg/kg/day, Male) was 317 ng/mL and the AUC(0-t) (beagle, in vivo, po, dog Day 1, 30 mg/kg/day, Male, read-out: AUClast) was 3790 ng·h/mL. For the same compound, the Cmax (beagle, in vivo, po, dog Day 1, 100 mg/kg/day, Female) was 293 ng/mL, the AUC(0-t) (beagle, in vivo, po, dog Day 1, 100 mg/kg/day, Female, read-out: AUClast) was 4060 ng·h/mL and the Cmax (beagle, in vivo, po, dog Day 1, 100 mg/kg/day, Male) was 367 ng/mL. The AUC(0-t) (beagle, in vivo, po, dog Day 1, 100 mg/kg/day, Male, read-out: AUClast) was 5190 ng·h/mL, the NOAEL (both sexes, beagle, in vivo, oral, 4-week Dog toxicology) was 10 mg/kg and the Tmax [1] was 4 h. For the same compound, the half-life [1] was 480 min, the “NOEL for myocardial risk” value (dog) was 30 mg/kg and the HNSTD (dog) was 30 mg/kg. For the same compound, the HNSTD (dog, estimated) was 30 mg/kg/day, the Cmax (female, beagle, in vivo, dog Day 28 mean, 10 mg/kg Compound 1 PO, F, Compound 2 as metabolite) was 867 ng/mL and the AUC(0-t) (female, beagle, in vivo, dog Day 28 mean, 10 mg/kg Compound 1 PO, F, Compound 2 as metabolite, read-out: AUC0-24) was 6540 ng·h/mL. For the same compound, the Cmax (female, beagle, in vivo, dog Day 28 mean, 30 mg/kg Compound 1 PO, F, Compound 2 as metabolite) was 508 ng/mL, the AUC(0-t) (female, beagle, in vivo, dog Day 28 mean, 30 mg/kg Compound 1 PO, F, Compound 2 as metabolite, read-out: AUC0-24) was 3490 ng·h/mL and the “human equivalent dose (HED) of the NOEL for myocardial risk” value (from dog NOEL 30 mg/kg) was 15 mg/kg. It also gave a Cmax (male, beagle, in vivo, dog Day 28 mean, 10 mg/kg Compound 1 PO, M, Compound 2 as metabolite) of 578 ng/mL, an AUC(0-t) (male, beagle, in vivo, dog Day 28 mean, 10 mg/kg Compound 1 PO, M, Compound 2 as metabolite, read-out: AUC0-24) of 3880 ng·h/mL and a Cmax (male, beagle, in vivo, dog Day 28 mean, 30 mg/kg Compound 1 PO, M, Compound 2 as metabolite) of 974 ng/mL. It also gave an AUC(0-t) (male, beagle, in vivo, dog Day 28 mean, 30 mg/kg Compound 1 PO, M, Compound 2 as metabolite, read-out: AUC0-24) of 7180 ng·h/mL.
